From patent publication US20060127400A1, “Activation of regulatory T cells by alpha-melanocyte stimulating hormone” (THE SCHEPENS EYE RESEARCH INSTITUTE, INC., priority 1999, published 2006)
No end group written: not given here.

System: CD3ζ
Assay: tyrosine phosphorylation of CD3ζ, immunoprecipitation and anti-phosphotyrosine immunoblot
Assay type: cell-based, mouse
Experimental: Immunoprecipitation and Immunoblotting. Enriched primed T cells (2×10^6 cells) in a 24 well Corning plate were TCR-stimulated with 2C11 in the presence of α-MSH (30 pg/ml) under serum-free conditions for 15 minutes. The T cells were collected, placed in a microcentrifuge tube and washed once with 10 mM Tris buffered saline (TBS) and lysed for 30 minutes in 100 μl of ice cold lysate buffer (10 mM TBS, 1% NP-40, 0.5% sodium deoxycholate, 0.1% SDS, 100 μg/ml phenylmethylsulfonyl fluoride (PMSF), 60 μg/ml Aprotinin, and 1 mM sodium orthovanadate). The cells were passed through a 21 gauge needles three times, and an additional 2 μl of 10 mg/ml PMSF was added. The tubes were incubated for an additional 30 minutes on ice and were centrifuged for 20 minutes, 4° C., 13,000×g. The supernatant was collected and used as total cellular lysate. The protein concentration was measured, and added to equal amounts of protein lysate were 20 μg/ml anti-CD3ζ antibody, or anti-CD3ε antibody plus rabbit anti-hamster IgG antibody and incubated overnight at 4° C. The rabbit anti-hamster IgG was needed for the CD3ε immunoprecipitation, since much of the CD3ε was bound by 2C11 a hamster anti-mouse […] and hamster antibody weakly binds protein-G. Protein-G sepharose beads (Pharmacia, Piscataway, N.J.) were added to the antibody containing lysates and incubated for 1 hour at room temperature with end over end agitation. The beads were centrifuged and washed 4 times with 10 mM TBS containing 0.5% sodium deoxycholate. After the final wash the beads were resuspended in 20 μl of distilled water and 20 μl non-reducing SDS Tris-glycine sample buffer (Novex, San Diego, Calif.), boiled for 5 minutes and applied into two wells (20 μl) of a 8-16% Tris-glycine polyacrylamide gel (Novex).
Following electrophoresis in a Novex Xcell II minicell and blot module, the proteins were transferred from the gel onto a nitrocellulose membrane (Novex) by electroblotting. The membrane was blocked with 1% BSA in 0.01 M TBS for 1 hour room temperature. The blocked membrane was placed in a sealable bag containing 5 ml of alkaline-phosphatase conjugated anti-phosphotyrosine antibody PY20 diluted 1/2000 in 1% BSA-TBS buffer. The membrane was incubated overnight at room temperature. The PY20 blotted membrane was washed 3 times with wash buffer containing 1% BSA-TBS and 0.05% Tween-20 and incubated with alkaline phosphatase substrate NBT-BCIP (Sigma Chemical) until bands appeared. The membrane was washed with distilled water. In parallel, some lanes on the membrane were immunoblotted with anti-CD3ζ antibody and alkaline phosphatase conjugated anti-mouse IgG (Sigma Chemical) to detect the relative mobility of CD3ζ protein. Membranes were digitally photographed and analyzed using NIH Image software to integrate the band intensities relative to band area minus background. […]
The enriched primed T cells (2×10^6 cells) were incubated with anti-CD3 in the presence of α-MSH (30 pg/ml) for 15 minutes. […] The immunoprecipitates were analyzed by non-reducing SDS-PAGE (on a 8-16% gradient gel), followed by transfer to a nitrocellulose filter and immunoblotting with anti-phosphotyrosine antibody: (1) Unstimulated primed T cells treated with α-MSH; (2) Unstimulated primed T cells incubated in media alone; (3) Enriched primed T cells TCR-stimulated in the absence of α-MSH; (4) Enriched primed T cells TCR-stimulated in the presence of α-MSH. […]

α-melanocyte stimulating hormone (SYSMEHFRWGKPV; not fully specified; ends and bridges not checked; UniProt P01189 138-150, looked up) [α-MSH, synthetic α-MSH (Peninsula Laboratories); thirteen-amino acid neuropeptide derived from POMC]
increase in CD3ζ tyrosine phosphorylation (TCR-stimulated primed T cells, versus stimulated in the absence of α-MSH): 6.7 fold | relative intensity of phosphotyrosine band, CD3ζ (TCR-stimulated primed T cells, α-MSH 30 pg/ml, 15 minutes (lane 4; without α-MSH 10)): 67 | overall level of tyrosine phosphorylation of CD3ζ (TCR-stimulated primed T cells, α-MSH 30 pg/ml, 15 minutes, Example III (FIG. 18A)): no significant change | stimulation of tyrosine phosphorylation of CD3ζ dimers (unstimulated primed T cells): 4 fold | relative intensity of phosphotyrosine band, CD3ζ (unstimulated primed T cells, α-MSH 30 pg/ml, 15 minutes (lane 1; media alone 1)): 4
